# In the METLIN SMRT retention time set (Domingo-Almenara et al. 2019):
# Assay: gradient 5% acetonitrile 3 min, to 50% in 2 min, to 85% in 15 min, held 3 min, 100 µL/min
# Conditions: column: Zorbax Extend-C18 2.1 x 50 mm; eluents: water / acetonitrile, 0.1% formic acid
# Outline: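 In both positive and negative ionization mode, a quadrupole time-of-flight mass spectrometer coupled to HPLC analyzed pure standards run in mixtures of ~100 molecules. The Zorbax Extend-C18 column (2.1 × 50 mm, 1.8 μm) was operated at 100 μL/min with water and acetonitrile, each containing 0.1% formic acid. The dead volume was 40 μL and the dwell volume 900 μL. Retention time came from adduct peaks that were computationally picked and individually inspected by hand.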
row,SMILES,RP-LC retention time
1,Cc1cc(C)c(NC(=O)COc2cccc3c(=O)n(C)ccc23)c(C)c1,805 s
2,CCn1cc(-c2nc(C)c(C(=O)Nc3ccc(OC)cc3OC)s2)c2cccnc21,1050 s
3,COc1ccc(NC(=O)c2[nH]c3cc(C)sc3c2CN2CCOCC2)cc1,655 s
4,Cc1cccc(S(=O)(=O)N2CCc3nc(-c4ccc(F)cc4)ncc3C2)c1,1140 s
5,COc1cc(OC)cc(C(=O)NCC(=O)Nc2nc3ccccc3[nH]2)c1,635 s
6,COc1ccc(OCc2noc(CNS(=O)(=O)Cc3ccccc3)n2)cc1,824 s
7,CCOc1ccccc1C(=O)N1CCCC1c1nc(-c2ccccc2OC)no1 (configuration not stated),886 s
8,Cc1ccc(Sc2nccnc2N2CCCC(C(=O)NCC3CCCO3)C2)cc1 (configuration not stated),917 s
9,CCC(C)n1c(=O)c2ccccc2n(Cc2nc(-c3ccc(OC)c(OC)c3)no2)c1=O (configuration not stated),1060 s
10,COc1ccc2[nH]cc(CCNC(=O)Cn3c4ccccc4c4cnn(C)c(=O)c43)c2c1,767 s
11,CC(=O)N(Cc1nn(C)c2c1CN(S(=O)(=O)c1cccc(F)c1)CC2)c1ccccc1,796 s
12,Cc1nnc(C2CCCCCN2C(=O)CCc2c(C)noc2C)o1 (configuration not stated),674 s
13,CCCNC(=O)C1CCCN(c2ccc(SCC(=O)NCc3ccccc3Cl)nn2)C1 (configuration not stated),661 s
14,COc1ccc(-c2noc(CN3C(=O)COc4cc(C(C)(C)C)ccc43)n2)cc1OC,1110 s
15,CC(=O)Nc1ccc(S(=O)(=O)N2CCC3(CC2)Nc2cc(F)ccc2-n2cccc23)cc1,967 s
16,COc1cc(N2C=C(C(=O)N3CCCC3)S(=O)(=O)c3ccccc32)cc(OC)c1OC,753 s
17,O=c1c2cc(-c3ccccc3)nn2ccn1Cc1noc(CN2CCc3ccccc3C2)n1,818 s
18,Cc1ccc(CN2CCCC(c3nc(C(C)C)no3)CCNC(=O)CC2)s1 (configuration not stated),661 s
19,COc1ccc(C(CNC(=O)c2cc(=O)c3cc(Cl)ccc3o2)N(C)C)cc1 (configuration not stated),650 s
20,Cn1c(CCc2cccc(NC(=O)C3CCN(S(=O)(=O)N4CCCC4)CC3)c2)nc2ccccc21,672 s

row,SMILES,RP-LC retention time
1,CC(C)N1CCN(S(=O)(=O)c2ccc(-c3nnc(C4CCC4)o3)o2)CC1,637 s
2,Cc1ccc(S(=O)(=O)N2CC(=O)N(c3ccccc3F)C(C)(C(=O)NCCC(C)C)C2)cc1 (configuration not stated),1020 s
3,CCC(=O)N1CCc2cc(-c3ccc(C(=O)NCc4ccco4)cc3)ccc21,849 s
4,COc1ccc(N(C)c2nnc(-c3ccc(NC(=O)c4ccco4)cc3)s2)cc1,712 s
5,COC(=O)c1ccccc1NC(=O)Cn1cccc(-c2nc(-c3ccc(Cl)cc3)no2)c1=O,1070 s
6,COc1ccc(-c2nnc(COc3ccc(NC(=O)C4CCC4)cc3)o2)cc1,826 s
7,CNC(=O)c1sc(-c2ccccc2F)nc1C,772 s
8,CCNC(=O)C1CCCN(c2nc3ncn(CC(=O)Nc4ccc(CC)cc4)c(=O)c3s2)C1 (configuration not stated),661 s
9,CN(C)C(=O)c1n[nH]c2c1CN(C(=O)c1cc(F)cc(F)c1)CC2,635 s
10,CC(=O)NCc1c(-c2ccc(Cl)cc2)nc2n1CCS2,568 s
11,Fc1cccc(CN2CCC(N3CC(OCC4CC4)C34CCCCC4)CC2)c1 (configuration not stated),588 s
12,COc1ccc(C(=O)N2CCN(C(=O)c3nnn4c3COC(c3ccc(F)cc3)C4)CC2)cc1F (configuration not stated),844 s
13,Cc1ccc(-c2noc(Cc3nc(-c4ccc(F)cc4)cs3)n2)cc1,1310 s
14,COCCc1noc(-c2cnc3nc(C)ccc3c2Nc2ccc(Cl)cc2)n1,760 s
15,CCN1CCN(CCNC(=O)CCCn2c3ccccc3c3cnn(C)c(=O)c32)CC1,579 s
16,Cc1csc(-c2ccc(N3CCN(C(=O)COc4ccc(F)cc4)CC3)nc2)n1,856 s
17,CCOc1ccc(NC(=O)N2CCN(c3cnn4c(C)nnc4c3)CC2)cc1,648 s
18,O=C(Cn1ccc2ccccc21)Nc1ccc2cn[nH]c2c1,726 s
19,CCN1CCN(CCCNC(=O)c2sc3ncccc3c2-n2c(C)ccc2C)CC1,607 s
20,O=C(Nc1ccccc1Cl)c1c(O)c2cccnc2n(-c2ccc(F)cc2)c1=O,1270 s

row,SMILES,RP-LC retention time
1,CCn1c(=O)oc2cc(-c3noc(-c4ccc(C(F)(F)F)cc4)n3)ccc21,1220 s
2,Cc1ccc(C)c(NC(=O)C(=O)NCC(c2ccc3c(c2)CCCN3C)N2CCCC2)c1 (configuration not stated),746 s
3,O=C(NCc1ccc(F)cc1)C(=O)NCC(c1ccc2c(c1)OCO2)N1CCOCC1 (configuration not stated),648 s
4,CCn1cnc(S(=O)(=O)N2CCC(C(=O)Nc3ccccc3)CC2)c1,701 s
5,CCCc1noc(-c2ccnc(-n3ncc(C(=O)Nc4ccc(Cl)cc4)c3C)c2)n1,1270 s
6,Cc1cc(=O)n(CC(=O)Nc2ccc(F)cc2)c(N2CCCC2)n1,618 s
7,Cc1cc(C)cc(N2CCC(NC(=O)NCc3cccc(F)c3)C2=O)c1 (configuration not stated),851 s
8,Cc1ccc(C)n1-c1c(C(=O)N2CCN(c3ccccn3)CC2)sc2ncccc12,690 s
9,N#Cc1c(NC(=O)c2ccc([N+](=O)[O-])cc2Cl)sc2c1CCCC2,1050 s
10,COC(=O)c1ccc(C(=O)NCCN2CCN(c3ccc(F)cc3)CC2)cc1,576 s
11,Cc1ccc2c(Nc3ccc(Cl)cc3)c(C(=O)N3CCSCC3)cnc2n1,634 s
12,COCC(=O)Nc1cnc(-c2ccc(Cl)cc2)nc1,857 s
13,Cn1ncc(N2CCCC(CC(=O)N3CCSCC3)C2)cc1=O (configuration not stated),666 s
14,CCN(CC)C(=O)c1c2c(nc3ccccc13)CCCC2,605 s
15,CCCn1nc2n(c1=O)CCN(Cc1cn[nH]c1-c1ccc(OCC)c(Cl)c1)C2,708 s
16,O=C(Nc1ccc2c(c1)OCCO2)C1CCCN(C(=O)c2cc(-c3ccncc3)n[nH]2)C1 (configuration not stated),584 s
17,O=C(NCCc1csc(C2CCCN(C(=O)C3CCCC3)C2)n1)C1CC1 (configuration not stated),696 s
18,O=C(NC(Cc1ccccc1)C(=O)N1CCN(c2ccccn2)CC1)c1ccc(Cl)cc1 (configuration not stated),692 s
19,CCc1cccc(C)c1Nc1c(-c2cccc(O)c2)nc2ncccn12,730 s
20,CCN1c2cc(C(=O)NC3CCN(Cc4ccccc4)CC3)ccc2C(=O)N2CCCCC21 (configuration not stated),638 s

# More lines, now with the values ahead:
row,RP-LC retention time,SMILES
1,984 s,CCCN1C(=O)c2ccccc2Sc2cc(-c3noc(C(C)NC(=O)c4ccco4)n3)ccc21 (configuration not stated)
2,1210 s,COc1ccc2c(c1)CCc1sc(NC(=O)c3ccc(OC)c(Br)c3)nc1-2
3,1090 s,COC(=O)c1cc(C2CC2)nc2c1c(=O)n(Cc1ccc(F)cc1)c(=O)n2C
4,737 s,COc1cccc(CNC(=O)C2(c3ccc(NC(C)=O)cc3)CCC2)c1
5,823 s,O=C(NCc1cccc(F)c1)c1ccc2c(c1)Sc1ncccc1C(=O)N2C1CC1
6,674 s,COc1cc2c(cc1OC)C(C(=O)N(C)c1ccc(Cl)cc1)C(c1cccnc1)N(C)C2=O (configuration not stated)
7,655 s,Cc1nn2c(CNC(=O)c3cccnc3)c(-c3ccccc3)nc2s1
8,688 s,Clc1ccc(-c2ccc(CNCC3CCCO3)o2)cc1 (configuration not stated)
9,584 s,CCN1C(=O)CN(C(=O)C2CC2)CC12CCOCC2
10,916 s,CCn1cnc(S(=O)(=O)N2CCC(C(=O)N3CCN(c4cc(Cl)ccc4C)CC3)CC2)c1
11,837 s,Cc1ccc(S(=O)(=O)N2c3ccccc3NC3=C(C(=O)CCC3)C2c2ccco2)cc1 (configuration not stated)
12,1110 s,CCCn1cc(C2=CCN(S(=O)(=O)c3cccc(Cl)c3)CC2)c2cccnc21
13,1130 s,Cc1sc(C)c(S(=O)(=O)N2CCCC2)c1-c1cc(C(F)(F)F)on1
14,872 s,O=C(NCC1CCCCC1)c1ccc2c(c1)nc1n2CCN(C2CCCCC2)C1=O
15,879 s,CCC(C)NC(=O)Cn1c(=O)c(S(=O)(=O)c2ccccc2)cc2cc(C)ccc21 (configuration not stated)
16,1210 s,Clc1ccc(OCc2nnc3sc(-c4ccc5ccccc5n4)nn23)cc1
17,776 s,Cc1nn(C)c(=O)c2cc(S(=O)(=O)NCc3ccccc3)cn12
18,690 s,O=C(NCCc1c[nH]c2ccccc12)C1CCCN(c2nnc(N3CCCC3=O)s2)C1 (configuration not stated)
19,660 s,CCC(C)NC(=O)c1cc(C)n(C)n1 (configuration not stated)
20,786 s,C=CCn1c(=O)c2c(nc3n2CCN3c2ccc(OC)cc2)n(C)c1=O
21,651 s,Cc1nnc(-c2ccc3ccn(CC(=O)N4CCN(Cc5ccc6c(c5)OCO6)CC4)c3c2)o1
22,597 s,COc1ccc(C2C(C(=O)NCCN(C)C)c3cc(OC)c(OC)cc3C(=O)N2C)cc1 (configuration not stated)
23,911 s,Cc1c(S(=O)(=O)NCc2ccc3c(c2)CCN3C(=O)CC(C)C)cnn1C(F)F
24,760 s,O=C(NC1CCCN(c2cc(-c3ccccc3)[nH]n2)C1)c1ccc2c(c1)OCO2 (configuration not stated)
25,795 s,CCC1Oc2ccc(S(=O)(=O)N3CCC(C(=O)NCc4ccco4)CC3)cc2NC1=O (configuration not stated)
26,613 s,Cc1ccc(-c2cn3c(n2)N(C(=O)c2cnn4cccnc24)CCC3)cc1
27,733 s,Cn1c(=O)c2nc(SCCC(=O)NCc3cc(F)cc(F)c3)n(C)c2n(C)c1=O
